In BindingDB's records for PubMed 1987453 (Georgetown University, 1991) one finds Ki data, which are given here for 4 compounds.

Bounds are passed on as bounds.

For the assay, the target named is Nicotinic acetylcholine receptor (Rattus leucopus, UniProt Q62594).
Chain of Nicotinic acetylcholine receptor (Q62594 whole entry): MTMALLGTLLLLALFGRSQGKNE
Usually Ki stands for a measure of affinity in units of concentration, obtained from inhibition or displacement. Low values mean tighter binding, high ones weaker binding. With `COc1cc2c3cc1Oc1cc(ccc1O)CC1c4c(cc(OC)c(O)c4Oc4ccc(cc4)CC3[N+](C)(C)CC2)CC[N+]1(C)C` (centres undefined) [CAS_8063-06-7], the Ki was above 10 µM.
For the compound `CN1[C@@H]2CC[C@H]1CC(OC(=O)[C@H](CO)c1ccccc1)C2` (some centres undefined) [CAS_51-55-8], the Ki is above 10 µM.
As for `C=C(C=O)C[C@H]1C[C@H](O)[C@]2(C)O[C@@H]3C[C@@H]4O[C@@H]5C[C@]6(C)O[C@]7(C)CC[C@@H]8O[C@@H]9C[C@]%10(C)O[C@@H]%11C(C)=CC(=O)O[C@H]%11C[C@H]%10O[C@H]9C[C@@H](C)[C@H]8O[C@H]7C[C@H]6O[C@@]5(C)C/C=C\[C@H]4O[C@H]3C[C@H]2O1`, affinity was put at a Ki of 2 µM.
Turning to `CNC(=O)Oc1ccc2c(c1)[C@]1(C)CCN(C)C1N2C` (some centres undefined), the Ki was above 10 µM.
